Reference: ChEMBL document CHEMBL2424579, “Quinazolin-4-one derivatives as selective histone deacetylase-6 inhibitors for the treatment of Alzheimer's disease” (J Med Chem, 2013)
The source made the active and inactive calls. The calls are words filed in the database; no cut-off is given here.

Assays:
PC-12 [1] = experiment: Induction iof GAP-43 protein expression in rat PC12 cells at 0.1 uM after 48 hrs by Western blotting analysis; assay type: functional, cell-based
PC-12 [2] = experiment: Inhibition of HDAC6 in rat PC12 cells assessed as induction of alpha-tubulin acetylation after 48 hrs by Western blotting analysis; assay type: cell-based
PC-12 [3] = experiment: Induction iof GAP-43 protein expression in rat PC12 cells after 48 hrs by Western blotting analysis; assay type: functional, cell-based
SH-SY5Y [4] = experiment: Increase of synaptic activity in human SH-SY5Y cells after 5 days by fluorescence assay; assay type: functional, cell-based; details: 120 h
SH-SY5Y [5] = experiment: Induction of neurite outgrowth in human SH-SY5Y cells after 5 days; assay type: functional, cell-based; details: 120 h
PC-12 [6] = experiment: Increase of synaptic activity in rat PC12 cells after 5 days by fluorescence assay; assay type: functional, cell-based; details: PC-12, 120 h
SH-SY5Y [7] = experiment: Induction of neurite outgrowth in human SH-SY5Y cells at 10 uM after 5 days; assay type: functional, cell-based
PC-12 [8] = experiment: Induction of neurite outgrowth in rat PC12 cells after 5 days; assay type: functional, cell-based; details: PC-12, 120 h
PC-12 [9] = experiment: Induction of neurite outgrowth in rat PC12 cells at 10 uM after 5 days; assay type: functional, cell-based
Histone deacetylase 11 = molecular target: T1, Histone deacetylase 11 (Homo sapiens, UniProt Q96DB2); experiment: Inhibition of human recombinant HDAC11 expressed in baculovirus/sf9 cells using RHKKAc as substrate
T1 sequence (Q96DB2 whole entry): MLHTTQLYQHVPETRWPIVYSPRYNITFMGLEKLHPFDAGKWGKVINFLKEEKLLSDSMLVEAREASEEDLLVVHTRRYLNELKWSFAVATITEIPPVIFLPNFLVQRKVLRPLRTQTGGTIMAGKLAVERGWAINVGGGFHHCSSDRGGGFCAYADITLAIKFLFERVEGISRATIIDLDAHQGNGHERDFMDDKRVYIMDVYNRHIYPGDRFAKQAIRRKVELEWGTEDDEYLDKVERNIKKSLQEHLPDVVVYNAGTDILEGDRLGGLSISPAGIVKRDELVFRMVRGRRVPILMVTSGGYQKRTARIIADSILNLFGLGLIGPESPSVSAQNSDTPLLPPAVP

[10] = molecular target: T2, Protein deacetylase HDAC6 (Homo sapiens, UniProt Q9UBN7); experiment: Inhibition of human recombinant HDAC6 expressed in baculovirus/sf9 cells using RHKKAc as substrate
T2 sequence (Q9UBN7 whole entry): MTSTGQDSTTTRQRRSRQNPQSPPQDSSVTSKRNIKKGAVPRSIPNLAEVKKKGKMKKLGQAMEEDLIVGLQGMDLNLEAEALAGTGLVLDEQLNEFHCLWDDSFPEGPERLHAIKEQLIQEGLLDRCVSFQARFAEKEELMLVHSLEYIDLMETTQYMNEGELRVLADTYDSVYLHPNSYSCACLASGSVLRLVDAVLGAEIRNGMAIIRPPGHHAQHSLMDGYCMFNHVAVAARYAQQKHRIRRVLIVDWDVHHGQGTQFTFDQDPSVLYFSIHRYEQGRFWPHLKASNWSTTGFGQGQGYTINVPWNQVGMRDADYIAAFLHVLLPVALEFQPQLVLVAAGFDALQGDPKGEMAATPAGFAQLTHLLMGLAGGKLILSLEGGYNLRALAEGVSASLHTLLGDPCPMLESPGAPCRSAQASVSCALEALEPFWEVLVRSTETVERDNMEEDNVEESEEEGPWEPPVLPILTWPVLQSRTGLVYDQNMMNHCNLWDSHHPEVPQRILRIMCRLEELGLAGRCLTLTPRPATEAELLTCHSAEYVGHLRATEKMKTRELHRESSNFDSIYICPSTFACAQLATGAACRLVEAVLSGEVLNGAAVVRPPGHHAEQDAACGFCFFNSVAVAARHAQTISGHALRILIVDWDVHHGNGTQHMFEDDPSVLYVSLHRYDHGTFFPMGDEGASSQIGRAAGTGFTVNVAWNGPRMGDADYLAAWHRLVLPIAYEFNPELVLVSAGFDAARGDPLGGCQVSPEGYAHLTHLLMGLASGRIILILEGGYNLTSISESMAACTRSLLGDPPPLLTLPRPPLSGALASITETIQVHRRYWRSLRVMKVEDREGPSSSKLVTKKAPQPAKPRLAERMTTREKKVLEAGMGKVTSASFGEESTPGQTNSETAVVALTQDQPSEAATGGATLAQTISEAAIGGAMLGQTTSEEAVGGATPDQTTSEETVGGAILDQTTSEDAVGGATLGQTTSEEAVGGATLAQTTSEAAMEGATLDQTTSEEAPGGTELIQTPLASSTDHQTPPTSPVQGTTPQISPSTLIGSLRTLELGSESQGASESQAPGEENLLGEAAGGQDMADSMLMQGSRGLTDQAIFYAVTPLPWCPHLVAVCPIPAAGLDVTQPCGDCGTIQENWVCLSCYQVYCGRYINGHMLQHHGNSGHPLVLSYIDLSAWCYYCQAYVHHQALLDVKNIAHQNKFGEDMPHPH

Histone deacetylase 8 = molecular target: T3, Histone deacetylase 8 (Homo sapiens, UniProt Q9BY41); experiment: Inhibition of human recombinant HDAC8 expressed in baculovirus/sf9 cells using RHKAcKAc as substrate
T3 sequence (Q9BY41 whole entry): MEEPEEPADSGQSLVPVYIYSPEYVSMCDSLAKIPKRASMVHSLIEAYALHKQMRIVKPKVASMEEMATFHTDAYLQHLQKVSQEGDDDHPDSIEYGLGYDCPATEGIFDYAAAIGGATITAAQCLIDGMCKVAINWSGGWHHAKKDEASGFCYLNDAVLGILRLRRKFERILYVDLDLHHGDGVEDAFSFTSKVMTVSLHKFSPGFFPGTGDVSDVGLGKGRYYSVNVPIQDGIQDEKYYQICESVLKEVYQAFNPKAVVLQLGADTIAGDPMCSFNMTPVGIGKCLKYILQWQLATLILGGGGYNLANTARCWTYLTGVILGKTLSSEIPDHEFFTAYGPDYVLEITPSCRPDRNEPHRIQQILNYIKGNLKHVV

Histone deacetylase 1 = Histone deacetylase 1 (Homo sapiens, UniProt Q13547); experiment: Inhibition of human recombinant HDAC1 expressed in baculovirus/sf9 cells using RHKKAc as substrate
Chain of Histone deacetylase 1 (Q13547 whole entry): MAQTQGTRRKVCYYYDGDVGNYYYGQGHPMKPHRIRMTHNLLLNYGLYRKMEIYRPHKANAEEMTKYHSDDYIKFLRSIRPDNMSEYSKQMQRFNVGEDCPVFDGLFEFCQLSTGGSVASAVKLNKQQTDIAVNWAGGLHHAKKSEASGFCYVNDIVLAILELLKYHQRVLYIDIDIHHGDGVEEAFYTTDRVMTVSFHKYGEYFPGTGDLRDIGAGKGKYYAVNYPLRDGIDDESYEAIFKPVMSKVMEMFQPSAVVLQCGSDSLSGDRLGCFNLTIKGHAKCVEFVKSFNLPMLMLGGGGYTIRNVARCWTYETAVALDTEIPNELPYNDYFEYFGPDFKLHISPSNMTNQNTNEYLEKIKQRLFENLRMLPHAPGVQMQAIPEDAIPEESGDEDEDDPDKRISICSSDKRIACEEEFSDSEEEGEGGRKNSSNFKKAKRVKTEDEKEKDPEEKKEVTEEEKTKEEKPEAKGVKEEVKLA

Histone deacetylase 2 = Histone deacetylase 2 (Homo sapiens, UniProt Q92769); experiment: Inhibition of human recombinant HDAC2 expressed in baculovirus/sf9 cells using RHKKAc as substrate
Chain of Histone deacetylase 2 (Q92769 whole entry): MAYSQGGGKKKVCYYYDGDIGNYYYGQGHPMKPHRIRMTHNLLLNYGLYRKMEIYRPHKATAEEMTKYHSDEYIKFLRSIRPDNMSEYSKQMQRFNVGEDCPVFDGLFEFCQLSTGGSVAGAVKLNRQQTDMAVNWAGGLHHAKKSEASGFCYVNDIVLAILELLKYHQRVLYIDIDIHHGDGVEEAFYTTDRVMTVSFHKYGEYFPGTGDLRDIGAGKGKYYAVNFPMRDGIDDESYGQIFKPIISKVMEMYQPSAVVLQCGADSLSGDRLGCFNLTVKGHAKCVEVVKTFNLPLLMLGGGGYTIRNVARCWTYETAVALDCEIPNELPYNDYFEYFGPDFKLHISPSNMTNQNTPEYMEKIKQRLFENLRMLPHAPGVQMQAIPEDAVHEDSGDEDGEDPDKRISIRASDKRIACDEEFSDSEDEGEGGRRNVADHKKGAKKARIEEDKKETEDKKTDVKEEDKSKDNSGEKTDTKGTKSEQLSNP

Vero = experiment: Cytotoxicity against african green monkey Vero cells at 25 uM; assay type: cell-based; details: chlorocebus sabaeus
[11] = Cytotoxicity against human SH-SY5Y cells at 25 uM; assay type: cell-based
PC-12 [12] = experiment: Cytotoxicity against rat PC12 cells at 25 uM; assay type: cell-based; details: pc-12, 25 µM
[13] = molecular target: Poly [ADP-ribose] polymerase 1 (Homo sapiens) (UniProt P09874); experiment: Inhibition of PARP1 (unknown origin) up to 25 uM
Chain of Poly [ADP-ribose] polymerase 1 (Homo sapiens) (P09874 whole entry): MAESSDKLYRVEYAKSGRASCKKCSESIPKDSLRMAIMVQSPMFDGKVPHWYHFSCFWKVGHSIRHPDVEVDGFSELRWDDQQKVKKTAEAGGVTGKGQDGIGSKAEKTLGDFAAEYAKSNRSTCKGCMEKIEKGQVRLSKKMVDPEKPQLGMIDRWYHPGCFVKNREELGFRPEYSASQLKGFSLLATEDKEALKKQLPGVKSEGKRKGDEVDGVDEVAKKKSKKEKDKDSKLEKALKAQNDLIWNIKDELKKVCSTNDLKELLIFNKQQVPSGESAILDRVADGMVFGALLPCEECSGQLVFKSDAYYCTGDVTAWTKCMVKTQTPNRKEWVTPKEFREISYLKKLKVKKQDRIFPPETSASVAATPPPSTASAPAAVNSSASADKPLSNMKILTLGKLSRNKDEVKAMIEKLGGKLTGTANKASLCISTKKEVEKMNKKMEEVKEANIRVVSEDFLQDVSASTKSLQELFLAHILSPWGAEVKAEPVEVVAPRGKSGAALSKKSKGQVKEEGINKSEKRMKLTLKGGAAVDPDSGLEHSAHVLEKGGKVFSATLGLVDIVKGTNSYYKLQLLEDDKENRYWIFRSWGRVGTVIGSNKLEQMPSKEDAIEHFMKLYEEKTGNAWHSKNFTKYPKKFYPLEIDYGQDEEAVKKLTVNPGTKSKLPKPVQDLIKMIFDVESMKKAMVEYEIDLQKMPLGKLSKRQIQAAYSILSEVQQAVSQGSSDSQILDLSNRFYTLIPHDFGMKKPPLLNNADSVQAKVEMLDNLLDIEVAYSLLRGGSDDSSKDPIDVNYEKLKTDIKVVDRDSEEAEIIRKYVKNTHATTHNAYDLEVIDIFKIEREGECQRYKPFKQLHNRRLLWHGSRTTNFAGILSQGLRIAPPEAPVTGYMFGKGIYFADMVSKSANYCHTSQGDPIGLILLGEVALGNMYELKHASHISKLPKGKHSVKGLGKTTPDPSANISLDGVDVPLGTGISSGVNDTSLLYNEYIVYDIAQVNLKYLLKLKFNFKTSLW

PC-12 [14] = experiment: Inhibition of HDAC6 in rat PC12 cells assessed as acetylation of histone H3 at 10 uM after 48 hrs by Western blotting analysis; assay type: cell-based
PC-12 [15] = experiment: Inhibition of HDAC6 in rat PC12 cells assessed as induction of alpha-tubulin acetylation at 10 uM after 48 hrs by Western blotting analysis; assay type: cell-based
[16] = molecular target: T4, Amyloid-beta precursor protein (Homo sapiens, UniProt P05067); experiment: Inhibition of amyloid beta aggregation (unknown origin) after 4 hrs by thioflavin S assay in absence of Zn2+
T4 sequence (P05067 whole entry): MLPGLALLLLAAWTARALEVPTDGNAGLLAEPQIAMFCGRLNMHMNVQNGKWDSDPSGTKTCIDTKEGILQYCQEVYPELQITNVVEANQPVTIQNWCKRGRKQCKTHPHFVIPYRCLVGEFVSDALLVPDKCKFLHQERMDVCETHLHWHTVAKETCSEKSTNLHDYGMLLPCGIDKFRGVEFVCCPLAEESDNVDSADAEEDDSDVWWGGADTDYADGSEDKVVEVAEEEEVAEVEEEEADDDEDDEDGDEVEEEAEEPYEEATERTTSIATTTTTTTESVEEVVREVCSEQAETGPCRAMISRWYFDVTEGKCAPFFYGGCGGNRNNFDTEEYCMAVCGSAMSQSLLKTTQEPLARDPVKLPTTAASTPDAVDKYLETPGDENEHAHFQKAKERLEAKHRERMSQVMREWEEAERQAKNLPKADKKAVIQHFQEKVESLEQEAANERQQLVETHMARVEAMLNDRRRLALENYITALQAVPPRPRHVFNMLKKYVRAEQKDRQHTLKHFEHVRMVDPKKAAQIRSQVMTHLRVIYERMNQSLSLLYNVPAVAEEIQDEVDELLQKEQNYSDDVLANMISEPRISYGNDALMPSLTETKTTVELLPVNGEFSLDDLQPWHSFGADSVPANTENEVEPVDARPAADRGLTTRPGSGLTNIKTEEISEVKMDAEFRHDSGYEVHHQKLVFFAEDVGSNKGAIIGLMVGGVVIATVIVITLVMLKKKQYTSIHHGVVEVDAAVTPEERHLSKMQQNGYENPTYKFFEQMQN

[17] = molecular target: T4, Amyloid-beta precursor protein; experiment: Inhibition of amyloid beta aggregation (unknown origin) after 4 hrs by thioflavin S assay in presence of Zn2+
Homo sapiens [18] = species: Homo sapiens; experiment: Selectivity index, ratio of IC50 for human recombinant HDAC1 to IC50 for human recombinant HDAC6
Homo sapiens [19] = species: Homo sapiens; experiment: Selectivity index, ratio of IC50 for human recombinant HDAC8 to IC50 for human recombinant HDAC6
[20] = molecular target: T5, Polyamine deacetylase HDAC10 (Homo sapiens, UniProt Q969S8); experiment: Inhibition of human recombinant HDAC10 expressed in baculovirus/sf9 cells using RHKKAc as substrate
T5 sequence (Q969S8 whole entry): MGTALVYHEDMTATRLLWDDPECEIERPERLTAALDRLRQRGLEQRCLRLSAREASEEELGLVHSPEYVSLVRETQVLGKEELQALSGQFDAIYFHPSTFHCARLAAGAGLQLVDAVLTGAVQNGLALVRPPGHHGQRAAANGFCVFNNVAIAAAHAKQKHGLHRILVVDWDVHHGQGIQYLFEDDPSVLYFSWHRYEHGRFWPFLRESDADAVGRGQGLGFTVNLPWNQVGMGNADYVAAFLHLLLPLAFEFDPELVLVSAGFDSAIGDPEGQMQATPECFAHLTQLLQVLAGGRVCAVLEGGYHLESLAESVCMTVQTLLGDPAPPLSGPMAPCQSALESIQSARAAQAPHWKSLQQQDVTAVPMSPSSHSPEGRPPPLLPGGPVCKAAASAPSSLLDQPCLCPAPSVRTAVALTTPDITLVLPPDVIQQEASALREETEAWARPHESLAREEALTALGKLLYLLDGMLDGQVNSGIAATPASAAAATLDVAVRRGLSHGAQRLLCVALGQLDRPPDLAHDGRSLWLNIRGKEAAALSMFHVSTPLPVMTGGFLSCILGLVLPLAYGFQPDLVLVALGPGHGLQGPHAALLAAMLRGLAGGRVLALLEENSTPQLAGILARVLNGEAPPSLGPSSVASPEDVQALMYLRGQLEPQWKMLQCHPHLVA

Mus musculus [21] = experiment: Antialzheimer activity in wild type learning-impaired Balb/c mouse model with hippocampal lesions at 10 mg/kg, ip administered for 30 days by rotarod test relative to vehicle-treated control; details: Hippocampus, TDE = time-dependent effect
Mus musculus [22] = experiment: Antialzheimer activity in wild type learning-impaired Balb/c mouse model with hippocampal lesions assessed as increase in acetylated alpha-tubulin level in hippocampus region at 10 mg/kg, ip administered for 30 days by rotarod test

CCc1nc2cc(F)c(/C=C/C(=O)NO)cc2c(=O)n1CCc1ccccc1
Activity (PC-12 [1]): Active | inhibition (PC-12 [2]): Dose-dependent effect | Activity (PC-12 [3]): Dose-dependent effect | EC50 (SH-SY5Y [4]): 4.3 µM | EC50 (SH-SY5Y [5]): 8.6 µM | EC50 (PC-12 [6]): 3.3 µM | Activity (SH-SY5Y [7]): Active | EC50 (PC-12 [8]): 7.2 µM | Activity (PC-12 [9]): Active | IC50 (Histone deacetylase 11): 4.68 µM | IC50 [10]: 0.008 µM | IC50 (Histone deacetylase 8): 0.766 µM | IC50 (Histone deacetylase 1): 1.94 µM | IC50 (Histone deacetylase 2): 5.68 µM | Activity (Vero): Non-toxic | Activity [11]: Non-toxic | Activity (PC-12 [12]): Non-toxic | inhibition [13]: inactive

CCc1nc2cc(Cc3ccc(C(=O)NO)cc3)ccc2c(=O)n1CCc1ccccc1
inhibition (PC-12 [14]): Active | inhibition (PC-12 [15]): Active | Activity (PC-12 [3]): Dose-dependent effect | EC50 (SH-SY5Y [4]): 5.5 µM | EC50 (SH-SY5Y [5]): 9.8 µM | EC50 (PC-12 [6]): 3.6 µM | Activity (SH-SY5Y [7]): Active | EC50 (PC-12 [8]): 9.3 µM | Activity (PC-12 [9]): Active | IC50 (Histone deacetylase 11): 1.32 µM | IC50 [10]: 0.009 µM | IC50 (Histone deacetylase 8): 0.173 µM | IC50 (Histone deacetylase 1): 4.85 µM | Activity (Vero): Non-toxic | Activity [11]: Non-toxic | Activity (PC-12 [12]): Non-toxic | inhibition [13]: inactive

CC(/C=C/C(=O)NO)=C\[C@@H](C)C(=O)c1ccc(N(C)C)cc1
inhibition (PC-12 [14]): Active | inhibition (PC-12 [15]): Active | Activity (PC-12 [3]): Dose-dependent effect | Activity (SH-SY5Y [7]): Active | Activity (PC-12 [9]): Active

Cc1nc2c(/C=C/C(=O)NO)cccc2c(=O)n1-c1ccccc1
IC50 [16]: > 50 µM | IC50 [17]: > 50 µM | Ratio IC50 (Homo sapiens [18]): 70 | Ratio IC50 (Homo sapiens [19]): < 1 | IC50 (Histone deacetylase 11): > 10 µM | IC50 [10]: 0.69 µM | IC50 [20]: 29.8 µM | IC50 (Histone deacetylase 8): 0.42 µM | IC50 (Histone deacetylase 1): 48.5 µM | IC50 (Histone deacetylase 2): > 10 µM | Activity (Vero): Non-toxic | Activity [11]: Non-toxic | Activity (PC-12 [12]): Non-toxic

Cc1nc2ccc(/C=C/C(=O)NO)cc2c(=O)n1-c1ccccc1
IC50 [16]: > 50 µM | IC50 [17]: > 50 µM | Ratio IC50 (Homo sapiens [18]): 65 | Ratio IC50 (Homo sapiens [19]): 19 | IC50 (Histone deacetylase 11): 5.22 µM | IC50 [10]: 0.032 µM | IC50 [20]: 5.14 µM | IC50 (Histone deacetylase 8): 0.609 µM | IC50 (Histone deacetylase 1): 2.09 µM | IC50 (Histone deacetylase 2): 7.48 µM | Activity (Vero): Non-toxic | Activity [11]: Non-toxic | Activity (PC-12 [12]): Non-toxic

Cc1nc2cc(/C=C/C(=O)NO)ccc2c(=O)n1-c1ccccc1
Activity (PC-12 [1]): Active | inhibition (PC-12 [2]): Dose-dependent effect | Activity (PC-12 [3]): Dose-dependent effect | Activity (SH-SY5Y [7]): Active | Activity (PC-12 [9]): Active | IC50 (Histone deacetylase 11): 1.35 µM | IC50 [10]: 0.088 µM | IC50 [20]: 17.5 µM | IC50 (Histone deacetylase 8): 3.88 µM | IC50 (Histone deacetylase 2): 1.61 µM | Activity (Vero): Non-toxic | Activity [11]: Non-toxic | Activity (PC-12 [12]): Non-toxic | inhibition [13]: inactive | Activity (Mus musculus [21]): tde | Activity (Mus musculus [22]): Active
